According to patent publication US9981934B2, “Enzyme-specific fluorescent compound capable of being retained in cells” (The University of Tokyo, priority 2014, dated 2018):

Assays:
[1] = biological target: T1, β-galactosidase (Escherichia coli, UniProt P00722); type: biochemical; conditions: 2.5 μM compound, 0.5 mg/mL BSA; for fluorescence at the band of BSA after SDS-PAGE: 5 U β-galactosidase, excitation 488 nm
Procedure: (1) 2.5 μM 4-CH2F-HMDER-βGal and 0.5 mg/mL BSA, (2) 2.5 μM 4-CH2F-HMDER-βGal, 0.5 mg/mL BSA, and 5 U of β-galactosidase, (3) 2.5 μM 4-CHF2-HMDER-βGal, 0.5 mg/mL BSA, and 5 U of β-galactosidase, (4) 2.5 μM 2-CHF2-HMDER-βGal, 0.5 mg/mL BSA, and 5 U of β-galactosidase, and (5) 2.5 μM HMDER-βGal, 0.5 mg/mL BSA, and 5 U of β-galactosidase were each reacted in aqueous solution (500 mM sodium phosphate buffer solution having a pH of 7.4), after which the reaction products were subjected to SDS-PAGE (running gel: 10%, stacking gel: 4%, electrophoresis voltage: 200 V). […] After observation, each gel was Coomassie stained and the position of the BSA on the gel was confirmed (FIG. 4(b)).

[2] = biological target: T2, HEK-lacZ cell lysate (Escherichia coli, UniProt P00722); type: biochemical; conditions: 2.5 μM compound; for fluorescence labeling of intracellular protein after SDS-PAGE: 1.5 mg/mL HEK-lacZ cell lysate, 30 minutes 37° C.
T2 construct: expressed in transfected cells; host or cells: HEK cells (HEK-lacZ), used as cell lysate
Description: HEK cells (HEK-lacZ cells) expressing β-galactosidase and HEK cells were used.

[3] = test system: HEK-lacZ cells; assay: Detection of β-galactosidase activity in living cells using flow cytometry; type: cell-based; conditions: mixture of HEK-LacZ and HEK cells, 1 μM, 30 minutes, excitation 488 nm
Procedure: These cells were analyzed by excitation light having a wavelength of 488 nm using an Accuri C6 (Accuri Cytometers, Inc.) flow cytometer.

[4] = test system: Wing primordia (wing discs) of a (en-lacZ) fruit fly expressing β-galactosidase; assay: Fluorescence imaging of non-fixed biological tissue having β-galactosidase activity; conditions: 20 μM, 30 minutes, room temperature
Description: The observation conditions were as follows: Ar: 40% to 25%, excitation light: 314 nm, emission wavelength: 535 to 595 nm (HyD2), 20× magnification.

[5] = test system: HEK-lacZ cells; assay: Fluorescence imaging of living cells expressing β-galactosidase (confocal microscope); conditions: for fluorescence imaging of β-galactosidase activity of individual cells: mixture of HEK-LacZ cells and HEK cells, without washing
Procedure: HEK cells, HEK-lacZ cells, and a mixture thereof were incubated (at 37° C. in the presence of 5% CO2) for 30 minutes together with 1 μM 4-CH2F-HMDER-βGal or HMDER-βGal, after which a fluorescence image and a differential interference image (DIC) of the cells were acquired using a confocal microscope, before and after washing twice with culture medium. […] A TCS SP5 X (manufactured by Leica) equipped with white light laser and an HCX PL APO CS 40×/1.25 objective lens (manufactured by Leica) was used as the confocal microscope, which was controlled by LAS AF software. The observation conditions were as follows: white light laser (WLL): 80% to 25%, excitation wavelength: 525 nm, observation wavelength: 535 to 595 nm, gain: 800 V (PMT1)/350 V (Scan-DIC), offset: 0%, pinhole: 67.88 μM (Airy disk).

[6] = biological target: T1, β-galactosidase; type: biochemical; conditions: 30 minutes, 250 mM sodium phosphate buffer pH 7.4, excitation 550 nm
Procedure: Absorption spectrum variation and fluorescence spectrum variation (excitation wavelength: 550 nm) caused by enzyme reaction of β-galactosidase and the enzyme-specific retainable fluorescent compound of the present invention 2-CHF2-HMDER-βGal, 4-CHF2-HMDER-βGal, or 4-CH2F-HMDER-βGal for 30 minutes was measured in the presence of a 250 mM sodium phosphate buffer solution (pH: 7.4). Measurement was performed using a Shimadzu UV-2450 (manufactured by Shimadzu Corporation) and a Hitachi F-7000 (manufactured by Hitachi, Ltd.).

[7] = test system: fruit fly (esg-lacZ) expressing β-galactosidase in the midgut; conditions: midgut fixed with 4% PFA, reacted 10 minutes
Procedure: A fruit fly (esg-lacZ) expressing β-galactosidase in the midgut thereof was dissected and fixed with 4% FPA. Then, 4-CH2F-HMDER-βGal was added and reacted for 10 minutes.

[8] = test system: ovarian cancer cells SHIN3; conditions: intraperitoneal administration, observed 1 hour later, SHIN3 cancer model mouse
Procedure: A cancer model mouse inoculated with ovarian cancer cells SHIN3 was produced. Acidic β-galactosidase activity is known to be elevated in ovarian cancer cells. 4-CH2F-HMDER-βGal was intraperitoneally administered to the cancer model mouse, and fluorescence was observed 1 hour later using a Maestro in-vivo imaging system (CRi). The observation conditions were as follows: excitation light: 490 to 530 nm, observation wavelength: 550 to 800 nm.

[9] = test system: wing primordia (wing discs) with arm-lacZ / His2Av-mRFP1 cells; conditions: 10 μM, 30 minutes, non-fixed wing primordia
Procedure: A male His2Av-mRFP1, FRT80B/TM6B fruit fly (Drosophila melanogaster) and a female hs-flp; arm-lacZ FRT80B fruit fly were crossed, a heat shock at a temperature of 37° C. for 1 hour was applied to the offspring at the first-instar larval stage 30 hours after hatching thereof, and cells having the following three genotypes were expressed in the wing primordia (wing discs): (1) cells expressing only β-galactosidase (arm-lacZ), (2) cells expressing only red fluorescent protein (mRFP1) (His2Av-mRFP1), and (3) cells expressing both β-galactosidase and mRFP1 (arm-lacZ/His2Av-mRFP1). […] The observation conditions were as follows: (4-CH2F-HMDER-βGal) excitation light: 514 nm, observation wavelength: 525 to 585 nm, (mRFP1) excitation light: 594 nm, emission wavelength: 610 to 700 nm, 63× magnification.

[10] = test system: fruit fly fat body overexpressing β-galactosidase; conditions: 10 μM, fat bodies of third-instar fly
Procedure: In order to analyze cells in fruit fly (Drosophila melanogaster) fat body, overexpression of β-galactosidase was induced by crossing UAS-lacZ with hs-flp^122; Actin>y>Gal4 using a flip-out technique. To perform living-cell fluorescence imaging, fat bodies were dissected from a third-instar (final instar) fly and incubated for 29 minutes in a culture medium including 10 μM 4-CH2F-HMDER-βGal and 16 μM Hoechst 33342 (cell nuclear stain), and the fat bodies were washed with PBS and immersed in 80% glycerol. To perform immunostaining, the dissected adipocytes were immersed for 20 minutes in PBS containing 4% paraformaldehyde (PFA) and fixed. […] The observation conditions were as follows: (Hoeschst 33342) excitation light: 405 nm, observation wavelength: 415 to 490 nm, (4-C2F-HMDER-βGal) excitation light: 514 nm, observation wavelength: 525 to 600 nm, (Alexa 647 modified secondary antibodies) excitation light: 633 nm, observation wavelength: 640 to 700 nm, 40× magnification.

T1 sequence (P00722 2-1024): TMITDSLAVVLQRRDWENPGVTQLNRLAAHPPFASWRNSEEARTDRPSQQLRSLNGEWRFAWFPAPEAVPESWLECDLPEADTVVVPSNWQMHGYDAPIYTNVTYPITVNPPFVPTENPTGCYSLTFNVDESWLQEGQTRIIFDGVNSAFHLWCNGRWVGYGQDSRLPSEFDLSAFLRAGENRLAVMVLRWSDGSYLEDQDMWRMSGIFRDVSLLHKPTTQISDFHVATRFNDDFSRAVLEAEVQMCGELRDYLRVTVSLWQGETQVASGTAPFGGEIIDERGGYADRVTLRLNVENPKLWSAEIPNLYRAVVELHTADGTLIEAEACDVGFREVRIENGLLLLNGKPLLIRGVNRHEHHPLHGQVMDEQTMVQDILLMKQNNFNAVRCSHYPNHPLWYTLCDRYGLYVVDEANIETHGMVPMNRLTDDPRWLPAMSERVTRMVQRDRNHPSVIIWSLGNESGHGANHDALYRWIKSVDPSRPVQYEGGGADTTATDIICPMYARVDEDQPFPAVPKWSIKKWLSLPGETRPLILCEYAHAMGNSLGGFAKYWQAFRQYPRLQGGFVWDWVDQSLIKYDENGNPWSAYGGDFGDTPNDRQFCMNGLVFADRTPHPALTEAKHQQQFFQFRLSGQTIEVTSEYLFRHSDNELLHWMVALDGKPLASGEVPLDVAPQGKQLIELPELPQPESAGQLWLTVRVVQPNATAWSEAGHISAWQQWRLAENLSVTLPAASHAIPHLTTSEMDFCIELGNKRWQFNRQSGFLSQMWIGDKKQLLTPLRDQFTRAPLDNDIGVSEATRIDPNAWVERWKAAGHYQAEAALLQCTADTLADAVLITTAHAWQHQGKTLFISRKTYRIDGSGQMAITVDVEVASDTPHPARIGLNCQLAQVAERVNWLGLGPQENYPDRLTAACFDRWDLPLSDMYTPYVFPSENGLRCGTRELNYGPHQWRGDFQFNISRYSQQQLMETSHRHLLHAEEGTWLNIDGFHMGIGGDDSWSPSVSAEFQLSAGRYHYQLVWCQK
T2 sequence (P00722 whole entry): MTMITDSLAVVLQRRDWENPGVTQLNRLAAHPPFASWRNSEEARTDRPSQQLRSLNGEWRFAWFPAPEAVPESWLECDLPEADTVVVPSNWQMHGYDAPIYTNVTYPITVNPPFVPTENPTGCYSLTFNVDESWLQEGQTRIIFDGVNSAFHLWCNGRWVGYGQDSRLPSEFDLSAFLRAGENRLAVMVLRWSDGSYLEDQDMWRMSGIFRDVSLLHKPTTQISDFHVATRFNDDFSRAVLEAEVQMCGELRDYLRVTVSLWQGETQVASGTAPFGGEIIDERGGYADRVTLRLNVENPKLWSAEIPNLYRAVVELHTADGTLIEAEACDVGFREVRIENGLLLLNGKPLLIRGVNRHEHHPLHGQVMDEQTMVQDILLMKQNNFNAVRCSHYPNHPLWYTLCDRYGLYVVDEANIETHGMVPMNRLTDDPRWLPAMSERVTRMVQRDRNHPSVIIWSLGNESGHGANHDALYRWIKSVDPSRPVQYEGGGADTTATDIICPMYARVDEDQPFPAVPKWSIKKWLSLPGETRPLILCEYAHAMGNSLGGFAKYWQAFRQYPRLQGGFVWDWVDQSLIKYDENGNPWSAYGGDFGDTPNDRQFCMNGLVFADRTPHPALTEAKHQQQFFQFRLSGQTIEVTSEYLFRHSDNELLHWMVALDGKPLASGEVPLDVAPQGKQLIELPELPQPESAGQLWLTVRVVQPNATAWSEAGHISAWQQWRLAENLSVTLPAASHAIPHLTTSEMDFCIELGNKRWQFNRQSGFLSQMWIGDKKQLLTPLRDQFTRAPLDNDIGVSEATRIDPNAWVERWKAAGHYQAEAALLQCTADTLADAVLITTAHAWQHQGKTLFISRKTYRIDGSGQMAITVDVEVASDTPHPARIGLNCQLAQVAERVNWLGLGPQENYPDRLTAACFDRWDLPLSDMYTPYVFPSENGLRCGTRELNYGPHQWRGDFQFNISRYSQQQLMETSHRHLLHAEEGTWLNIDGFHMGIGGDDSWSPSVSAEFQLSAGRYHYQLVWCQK

SMILES | fluorescence at the band of BSA after SDS-PAGE [1] | fluorescence labeling of intracellular protein after SDS-PAGE [2] | differentiation of HEK-LacZ cells and HEK cells by flow cytometry [3] | selective fluorescence imaging of the region having β-galactosidase activity [4] | fluorescence imaging of β-galactosidase activity of individual cells ([5]; 1 μM, 30 minutes) | fluorescence emission as a result of enzyme reaction with β-galactosidase [6] | fluorescence at the band of BSA after SDS-PAGE, sample not including β-galactosidase ([1]; no β-galactosidase (lane 1)) | fluorescence labeling of intracellular protein after SDS-PAGE, HEK cells not expressing β-galactosidase ([2]; 1.5 mg/mL HEK cell lysate (lane 1)) | single-cell fluorescence imaging in fixed tissue [7] | cancer-site-selective fluorescence imaging [8] | visualization of mosaic pattern of β-galactosidase-positive cells [9] | fluorescence imaging of β-galactosidase-expressing cells in fat body [10] | fluorescence of HEK-LacZ cells ([5]; 1 μM, 30 minutes, observed without washing) | change in fluorescence intensity after washing (retention in cells) ([5]; 1 μM, 30 minutes, washed twice with culture medium) | fluorescence imaging of fixed samples ([5]; cells fixed with 4% PFA for 10 minutes after incubation)
CCN(CC)c1ccc2c(c1)Oc1cc(OC3OC(CO)C(O)C(O)C3O)ccc1C21OCc2ccccc21 (centres unmarked) [HMDER-βGal, reference compound] | Fluorescence was not observed | Fluorescence was not confirmed | the cells could not be differentiated | the region of interest having β-galactosidase activity could not be discerned | fluorescence imaging of β-galactosidase activity of individual eels was not possible |  |  |  |  |  |  |  |  |  | 
CCN(CC)c1ccc2c(c1)Oc1c(ccc(O[C@@H]3O[C@H](CO)[C@H](O)[C@H](O)[C@H]3O)c1C(F)F)C21OCc2ccccc21 (stereo partly drawn) [4-CHF2-HMDER-βGal, (2S,3R,4S,5R,6R)-2-((3′-(diethyiamino)-5′-(difluoromethyl)-3H-spiro[isobenzofuran-1,9′-xanthen]-6′-yl)-oxy)-6-(hydroxymethyl)tetrahydro-2H-pyran-3,4,5-triol] | Fluorescence was observed at the band of BSA | Fluorescence labeling to the intracellular protein was confirmed |  |  |  | emitted fluorescence |  |  |  |  |  |  |  |  | 
CCN(CC)c1ccc2c(c1)Oc1cc(O[C@@H]3O[C@H](CO)[C@H](O)[C@H](O)[C@H]3O)c(C(F)F)cc1C21OCc2ccccc21 (stereo partly drawn) [2-CHF2-HMDER-βGal, (2S,3R,4S,5R,6R)-2-((6′-(diethylamino)-2′-(difluoromethyl)-3H-spiro[isobenzofuran-1,9′-xanthen]-3′-yl)oxy)-6-(hydroxymethyl)tetrahydro-2H-pyran-3,4,5-triol] | Fluorescence was observed at the band of BSA | Fluorescence labeling to the intracellular protein was confirmed |  |  |  | emitted fluorescence |  |  |  |  |  |  |  |  | 
CCN(CC)c1ccc2c(c1)Oc1c(ccc(O[C@@H]3O[C@H](CO)[C@H](O)[C@H](O)[C@H]3O)c1CF)C21OCc2ccccc21 (some centres unmarked) [4-CH2F-HMDER-βGal] | Fluorescence was observed at the band of BSA | Fluorescence labeling to the intracellular protein was confirmed | possible to clearly differentiate between these cell types | selective fluorescence imaging of the region of interest (posterior section) having β-galactosidase activity was possible | a definite difference in fluorescence level among individual cells was observed | emitted fluorescence | Fluorescence was not observed | Fluorescence was not confirmed | it was possible to confirm a cell emitting fluorescence in a tissue | can be applied in cancer-site-selective fluorescence imaging | the mosaic pattern of the cells having the three genotypes described above was clearly visualized | it is possible to perform fluorescent imaging of cells of interest in which β-galactosidase is expressed | exhibited clear fluorescence | almost no change in fluorescence intensity | Fluorescence imaging with the fixed samples was also possible
